Test results taken from patent publication US11202743B2, “Personal care compositions comprising fatty acid amide derivatives” (Conopco, Inc., priority 2016, dated 2021).

Assays:
human CB1 receptor = human CB1 receptor (Homo sapiens (Human), UniProt P21554); test: CB1 receptor binding assay, displacement of 3H CP-55,940 from membrane preparation; conditions: inhibition of 3H CP-55,940 binding (1 nM), human CB1 membranes
Procedure: (§1) The ability of the compounds according to some embodiments of the present invention to inhibit a radiolabeled cannabinoid ligand, CP-55,940, [Side chain-2,3,4(N)-3H(N)]-(Perkin-Elmer Cat. # NET1051) to either the human CB1 receptor or CB2 receptor was determined according to the manufacturer's instructions in the commercially available membrane preparations from Perkin Elmer (Cat Nos. RBHCB1M400UA and RBXCB2M400UA). Briefly, pre-treatment of the glass fiber membrane of a Matrix 96 well GFC filtration microtiter plate was done in order to help reduce non-specific binding of the radioligand to the GFC membrane. This was done by adding 150 μl of 0.5% polyethylimine (PEI) to each well and letting this remain in the plate for at least 4 hours before using it to terminate the binding reaction. The actual binding reaction was performed in a polypropylene (PP) round bottom 96-well microtiter plate. Briefly, 55 μl of assay buffer (50 mM TRIS pH7.4, 2.5 mM EGTA, 5 mM MgCl2, 120 mM NaCl, 0.1% Fatty acid free BSA) was added to each well, followed by 20 μl of a 0.4 mg/ml CB1 or CB2 membrane suspension (8 μg membrane per well). To initiate the reaction, 20 μl of 5 nM ^3H CP-55,940 (1 nM final concentration) was added to each well. Nonspecific binding was defined in the presence of 20 μM unlabeled WIN 55212 (Sigma cat. W-102). ACEA was routinely used as a positive control for both assays. The plate was shaken on an orbital plate shaker and the binding reaction proceeded until equilibrium was reached after 3 hours at room temperature. Using a Multiscreen vacuum manifold, the PEI was filtered through the GFC filter plate. The binding reaction in the PP plate was mixed by aspirating the reaction contents of each well and dispensing back into the plate. This was repeated 4 times and then 75 μl of the reaction mixture was transferred to the GFC plate. This procedure could be done row by row with the use of a multichannel pipette, or all at once if using automation. Once the entire content of the PP plate was transferred to the GFC plate, the binding reactions were terminated by filtering thru the GFC plate. The filter plate was then washed by adding 100 μl ice-cold wash buffer 50 mM TRIS pH 7.4, 2.5 mM EGTA, 5 mM MgCl2, 120 mM NaCl, 2% Fatty acid free BSA) to each well and filtering through. This was repeated 8 times, after which the filter mat was allowed to dry. Once the filter mat was dry, 50 μl of Microscint scintillation cocktail was added to each well, allowed to sit for 15-20 min, and the plate read on a Microbeta2 scintillation counter.
(§2) The lower the IC50 value, the higher the binding.

[1] = biological target: recombinant human FAAH enzyme (Homo sapiens (Human), UniProt O00519); test: FAAH inhibition assay (Cayman Chemicals kit, AMC-arachidonoyl amide hydrolysis, fluorescence); assay type: biochemical
Procedure: The ability of the compounds according to some embodiments of the present invention to inhibit FAAH was determined according to the methods disclosed a commercially available kit from Cayman Chemicals (Cayman Cat. No. 10005196). The kit utilizes recombinant human FAAH enzyme which hydrolyzes AMC-arachidonoyl amide resulting in the release of the fluorescent product, 7-amino-4-methylcoumarin (AMC). The fluorophore was detected via fluorescence, using an excitation wavelength of 340-360 nm and an emission wavelength of 450-465 nm. The assay was followed as described in the kit manual, which can be found on the webpage of Cayman Chemicals.

human CB2 receptor = human CB2 receptor (Homo sapiens (Human), UniProt P34972); test: CB2 receptor binding assay, displacement of 3H CP-55,940 from membrane preparation; conditions: inhibition of 3H CP-55,940 binding (1 nM), human CB2 membranes
Procedure: as §1, §2

[2] = Effect on solubility of 12 HSA (visual observation); assay type: physicochemical
[3] = test system: serotonin-induced scratches (itch); conditions: mice; cited from earlier work
[4] = 48.28% Tween 20, 34.48% 12-HSA, 17.24% compound
[5] = 41.18% Tween 60, 29.41% 12-HSA, 29.41% compound
[6] = 41.67% Tween 60, 41.67% 12-HSA, 16.67% compound
[7] = 41.18% Tween 20, 29.41% 12-HSA, 29.41% compound

Sequence of human CB1 receptor (P21554 whole entry): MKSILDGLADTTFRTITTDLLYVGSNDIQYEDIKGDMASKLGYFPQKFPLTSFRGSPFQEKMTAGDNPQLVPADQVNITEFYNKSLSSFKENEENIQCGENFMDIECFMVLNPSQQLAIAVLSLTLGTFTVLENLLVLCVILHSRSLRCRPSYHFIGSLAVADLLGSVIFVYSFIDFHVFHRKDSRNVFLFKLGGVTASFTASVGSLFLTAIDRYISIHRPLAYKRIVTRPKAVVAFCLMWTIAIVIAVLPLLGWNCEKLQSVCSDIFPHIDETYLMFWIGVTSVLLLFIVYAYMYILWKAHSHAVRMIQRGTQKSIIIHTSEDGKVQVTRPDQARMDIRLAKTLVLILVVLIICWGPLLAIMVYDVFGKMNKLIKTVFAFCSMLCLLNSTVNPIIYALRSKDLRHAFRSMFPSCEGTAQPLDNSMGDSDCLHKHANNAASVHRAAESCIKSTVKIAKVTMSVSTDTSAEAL
Sequence of recombinant human FAAH enzyme (O00519 whole entry): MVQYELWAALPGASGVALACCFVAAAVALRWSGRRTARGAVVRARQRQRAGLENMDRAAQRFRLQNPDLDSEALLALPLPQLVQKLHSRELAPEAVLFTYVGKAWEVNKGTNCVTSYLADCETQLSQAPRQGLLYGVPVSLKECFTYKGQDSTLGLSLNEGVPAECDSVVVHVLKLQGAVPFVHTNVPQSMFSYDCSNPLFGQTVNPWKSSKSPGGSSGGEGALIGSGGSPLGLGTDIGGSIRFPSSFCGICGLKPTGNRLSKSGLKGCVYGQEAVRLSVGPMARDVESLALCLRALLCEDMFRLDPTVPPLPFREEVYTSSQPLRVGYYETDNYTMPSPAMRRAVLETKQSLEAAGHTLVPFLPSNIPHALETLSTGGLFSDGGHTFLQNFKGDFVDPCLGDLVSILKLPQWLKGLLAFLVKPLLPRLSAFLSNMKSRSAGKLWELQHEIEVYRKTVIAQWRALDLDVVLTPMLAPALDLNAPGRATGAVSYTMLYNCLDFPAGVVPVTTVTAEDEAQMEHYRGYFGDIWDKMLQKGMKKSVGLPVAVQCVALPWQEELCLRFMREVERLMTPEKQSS
Sequence of human CB2 receptor (P34972 whole entry): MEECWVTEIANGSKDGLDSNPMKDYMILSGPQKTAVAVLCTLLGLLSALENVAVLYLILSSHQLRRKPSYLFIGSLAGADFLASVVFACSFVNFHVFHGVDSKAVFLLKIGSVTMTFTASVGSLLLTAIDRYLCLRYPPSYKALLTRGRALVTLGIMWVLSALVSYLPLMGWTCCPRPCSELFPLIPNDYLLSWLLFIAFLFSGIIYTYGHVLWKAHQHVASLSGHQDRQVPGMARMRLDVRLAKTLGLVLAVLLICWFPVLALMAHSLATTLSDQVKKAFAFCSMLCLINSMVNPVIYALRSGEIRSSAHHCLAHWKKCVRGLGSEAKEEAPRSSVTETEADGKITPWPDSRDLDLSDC

Row | Compound | CB1 IC50 (human CB1 receptor) | IC50 [1] [µM] | CB2 IC50 (human CB2 receptor) | other results
1 | CCCCC/C=C\C=C\CCCCCCCCC(=O)NC(C)C(=O)O (centres unmarked) [Compound 2] | No binding | 2.6 | No binding | –
2 | CCCCCC/C=C/C=C/CCCCCCCC(=O)NCCC(=O)O [Compound 3] | – | 2.8 | – | IC50 (human CB1 receptor): 22 µM; IC50 (human CB2 receptor): 26 µM; Observation [2, 4]: translucent
3 | CCCCC/C=C\C=C\CCCCCCCCC(=O)NCCC(=O)O [Compound 4] | – | 2.8 | – | IC50 (human CB1 receptor): 22 µM; IC50 (human CB2 receptor): 26 µM
4 | CCCCCC/C=C/C=C\CCCCCCCC(=O)NCC(=O)O [Compound 5] | No binding | 3.5 | No binding | Observation ([2]; 33.33% Tween 20, 41.67% 12-HSA, […] compound): translucent; Observation ([2]; 40% Tween 20, 30% 12-HSA, 10% compound): translucent; Observation ([2]; 40.00% Tween 20, 40% 12-HSA, 20% compound): translucent; Observation [2, 4]: translucent; Observation ([2]; 48.28% Tween 60, 34.48% 12-HSA, 17.24% compound): translucent
5 | CCCCC/C=C\C=C\CCCCCCCCC(=O)NCC(=O)O [Compound 6] | No binding | 3.5 | No binding | –
6 | CCCCCC/C=C/C=C\CCCCCCCC(=O)NC(Cc1ccccc1)C(=O)O (centres unmarked) [Compound 7] | No binding | 11 | No binding | –
7 | CCCCC/C=C\C=C\CCCCCCCCC(=O)NC(Cc1ccccc1)C(=O)O (centres unmarked) [Compound 8] | No binding | 11 | No binding | –
8 | CCCCC/C=C\C=C\CCCCCCCCC(=O)NCC(Cc1c[nH]cn1)C(=O)O (centres unmarked) [Compound 9] | – | 13 | – | IC50 (human CB2 receptor): 38 µM
9 | CCCCCC/C=C/C=C/CCCCCCCC(=O)NC(CC(=O)O)Cc1c[nH]cn1 (centres unmarked) [Compound 10] | – | 13 | – | IC50 (human CB2 receptor): 38 µM
10 | CCCCC/C=C\C=C\CCCCCCCCC(=O)NC(CCC(=O)O)C(=O)O (centres unmarked) [Compound 11] | No binding | – | No binding | FAAH IC50 [1]: No binding; Observation [2, 5]: translucent/clear; Observation [2, 6]: translucent
11 | CCCCCCC(O)C/C=C\CCCCCCCC(=O)NC(C)C(=O)O (centres unmarked) [Compound 12] | no binding activities | 42 | no binding activities | Observation [2, 7]: translucent; Observation [2, 5]: translucent
12 | CCCCCCC(O)C/C=C\CCCCCCCC(=O)NC(C(=O)O)C(C)CC (centres unmarked) [Compound 13] | – | – | – | Observation [2, 5]: translucent
13 | CCCCCCC(O)C/C=C\CCCCCCCC(=O)NCC(=O)O (centres unmarked) [Compound 14] | no binding activities | 26 | no binding activities | Observation [2, 7]: translucent; Observation [2, 5]: translucent
14 | CCCCCCC(O)C/C=C\CCCCCCCC(=O)NC(CCC(=O)O)C(=O)O (centres unmarked) [Compound 15] | – | – | – | Observation [2, 5]: translucent; Observation [2, 6]: translucent
15 | CCCCCCC(O)CCCCCCCCCCC(=O)NC(CC(=O)O)C(=O)O (centres unmarked) [Compound 16] | – | – | – | Observation ([2]; 45.16% Tween 60, 38.71% 12-HSA, 16.13% compound): translucent
16 | CCCCCCC(O)CCCCCCCCCCC(=O)NC(C)C(=O)O (centres unmarked) [Compound 17] | no binding activities | 40 | no binding activities | –
17 | CCCCCCC(O)CCCCCCCCCCC(=O)NCC(=O)O (centres unmarked) [Compound 18] | no binding activities | 46 | no binding activities | Observation ([2]; 48.39% Tween 60, 48.39% 12-HSA, 3.23% compound): translucent
18 | CCCCCCC(O)CCCCCCCCCCC(=O)NC(CCC(=O)O)C(=O)O (centres unmarked) [Compound 19] | – | – | – | Observation ([2]; 50.00% Tween 60, 35.71% 12-HSA, 14.29% compound): translucent
19 | NC(=O)c1cccc(-c2cccc(OC(=O)NC3CCCCC3)c2)c1 [URB597] | – | – | – | Serotonin-induced scratches (itch) [3]: attenuate
20 | conjugated linoleyl glycinate acid [Compound 1] | No binding | 2.6 | No binding | –
